Target: T1, papain (Carica papaya, UniProt P00784)
T1 construct: purchased Sigma Chem. Co
T1 sequence (P00784 134-345): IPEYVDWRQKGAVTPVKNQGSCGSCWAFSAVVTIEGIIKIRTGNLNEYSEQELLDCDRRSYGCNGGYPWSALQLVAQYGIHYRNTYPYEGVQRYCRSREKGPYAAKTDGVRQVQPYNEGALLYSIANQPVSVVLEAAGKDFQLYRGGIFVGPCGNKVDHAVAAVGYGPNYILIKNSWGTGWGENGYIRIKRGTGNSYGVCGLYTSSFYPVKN
Assay: Papain inhibitory activity (milk casein digestion)
Assay type: biochemical
Conditions: papain 80 μg/ml 0.5 ml, cysteine, pH 6.8, 1% milk casein, 40° C., 10 minutes
Method: Papain inhibitory activity of the compounds of this invention was assayed as follows: To 0.5 ml of a solution of papain (80 μg/ml, Sigma Chem. Co., 2x cry.), were added 0.25 ml of 40 mM cysteine dissolved in 20 mM disodium ethylenediamine tetraacetic acid solution adjusted pH to 6.8 with sodium hydroxide and 0.25 ml of 33 mM phosphate buffer (pH 6.8) with or without inhibitor. After incubation at 40° C. for 15 minutes, the resulting mixture was added to 5 ml of 1% milk casein solution in the same buffer as described above, and further incubated at 40° C. for 10 minutes. Then the mixture was mixed with 5 ml of 0.44 M trichloroacetic acid solution and followed by filtration with a sheet of Toyo filter paper No. 4. The extinction of the filtrate was read at 280 nm. The percent inhibition was calculated from the formula, 100 x (B-A)/B; wherein B stands for the absorbance without inhibitor and A for the absorbance with inhibitor. The compound Nos. in Table 1 are as defined in Examples as described hereinafter.

Row | Structure (SMILES) | ID50 (amount of inhibitor for 50% inhibition)
1 | O=C(OCCCCC1CCCCC1)[C@@H]1O[C@H]1C(=O)OCCCCC1CCCCC1 (relative stereo) [EP-67, di-4-cyclohexanebutyl epoxysuccinate] | 93.28 γ
2 | O=C(O)[C@@H]1O[C@H]1C(=O)OCCCCC1CCCCC1 (relative stereo) [EP-68, 4-cyclohexanebutyl potassium epoxysuccinate] | 0.10 γ
3 | O=C(OCC1CCC=CCCC1)[C@@H]1O[C@H]1C(=O)OCC1CCC=CCCC1 (relative stereo) [EP-73, di-4-cyclooctenemethyl epoxysuccinate] | 0.10 γ
4 | O=C(O)[C@@H]1O[C@H]1C(=O)OCC1CCC=CCCC1 (relative stereo) [EP-74, 4-cyclooctenemethyl potassium epoxysuccinate] | 0.07 γ
5 | O=C(O)[C@@H]1O[C@H]1C(=O)OCC1CCCO1 (relative stereo) [EP-76, tetrahydro-2-furanmethyl potassium epoxysuccinate] | 0.82 γ
6 | O=C(OCc1ccco1)[C@@H]1O[C@H]1C(=O)OCc1ccco1 (relative stereo) [EP-77, di-2-furanmethyl epoxysuccinate] | 0.77 γ
7 | O=C(O)[C@@H]1O[C@H]1C(=O)OCc1ccco1 (relative stereo) [EP-78, 2-furanmethyl potassium epoxysuccinate] | 0.54 γ
8 | O=C(O)[C@@H]1O[C@H]1C(=O)OCc1cccs1 (relative stereo) [EP-80, 2'-thenyl potassium epoxysuccinate] | 0.32 γ
9 | O=C(O)[C@@H]1O[C@H]1C(=O)OCc1cccc2ccccc12 (relative stereo) [EP-82, 1'-naphthylmethyl potassium epoxysuccinate] | 0.34 γ
10 | O=C(OCc1c(Cl)ccc2ccccc12)[C@@H]1O[C@H]1C(=O)OCc1c(Cl)ccc2ccccc12 (relative stereo) [EP-83, di-2'-chloro-1'-naphthylmethyl epoxysuccinate] | 1.55 γ
11 | O=C(O)[C@@H]1O[C@H]1C(=O)OCc1c(Cl)ccc2ccccc12 (relative stereo) [EP-84, 2'-chloro-1'-naphthylmethyl potassium epoxysuccinate] | 0.29 γ
12 | O=C(OCc1cccc2c(Br)cccc12)[C@@H]1O[C@H]1C(=O)OCc1cccc2c(Br)cccc12 (relative stereo) [EP-85, di-5'-bromo-1'-naphthylmethyl epoxysuccinate] | 1.56 γ
13 | O=C(O)[C@@H]1O[C@H]1C(=O)OCc1cccc2c(Br)cccc12 (relative stereo) [EP-86, 5'-bromo-1'-naphthylmethyl potassium epoxysuccinate] | 0.27 γ
14 | Cc1cccc2c(COC(=O)[C@@H]3O[C@H]3C(=O)OCc3ccc(C)c4c(C)cccc34)ccc(C)c12 (relative stereo) [EP-87, di-4',5'-dimethyl-1'-naphthylmethyl epoxysuccinate] | 1.58 γ
15 | Cc1cccc2c(COC(=O)[C@@H]3O[C@H]3C(=O)O)ccc(C)c12 (relative stereo) [EP-88, 4',5'-dimethyl-1'-naphthylmethyl potassium epoxysuccinate] | 0.32 γ
16 | Cc1ccc(COC(=O)[C@@H]2O[C@H]2C(=O)OCc2ccc(C)cc2)cc1 (relative stereo) [EP-89, di-p-methylbenzyl epoxysuccinate] | 1.39 γ
17 | Cc1ccc(COC(=O)[C@@H]2O[C@H]2C(=O)O)cc1 (relative stereo) [EP-90, p-methylbenzyl potassium epoxysuccinate] | 0.25 γ
